Data on seven compounds can be found in article PMC2753751 (Bioorganic & medicinal chemistry letters, 2009).

The test system of data set [1] is A549 human lung carcinoma cell line. As to the kind of experiment: cytotoxicity with A549 cell monolayers. The class given is cell-based.
For data set [2], the system named is Pneumocystis carinii. The following applies: read-out: IC50 P. carinii; P. carinii obtained from rat lungs; ref [15]; cited from earlier work.
Data set [3] deals with Pneumocystis carinii. Put plainly: in vitro inhibition of Pneumocystis carinii. The following applies: ratio of cytotoxic A549 IC50 to P. carinii IC50. The class given is cell-based.
In data set [4] the test system is Trypanosoma brucei rhodesiense KETRI 243. Put plainly: in vitro inhibition of Trypanosoma brucei rhodesiense. The data set is classed as cell-based. The conditions noted are these: T.b. rhodesiense KETRI 243 versus T.b. brucei LAB 110.
For another data set, the system named is Pneumocystis. The following applies: immunosuppressed mouse, 20 mg/kg and 40 mg/kg doses; ref [1]; cited from earlier work.

Consider `N=C(N)c1ccc(NC(=O)CCCCCCCCC(=O)Nc2ccc(C(=N)N)cc2)cc1` [Compound 12], for which the “cytotoxicity against the A549 cell line (in words)” value (from here on “cytotoxicity”) in data set [1] was “very low cytoxicity”.

As for `N=C(N)c1ccc(OCCCCCOc2ccc(C(=N)N)cc2)cc1` [Pentamidine, reference compound], the IC50 (commonly the point on the concentration scale where inhibition reaches its midpoint) in the data set on Pneumocystis carinii [2] was 0.5 µM.

Take `N=C(N)c1ccc(NC(=O)CCCCCC(=O)Nc2ccc(C(=N)N)cc2)cc1` [Compound 9]: the “cytotoxicity” value in data set [1] is reported as “very low cytoxicity”.

With “N,N′-bis[4-(aminoiminomethyl)phenyl] hexanediamide [Compound 4]”, the 50% inhibitory concentration (IC50) was 1190 µM in data set [1] and 0.002 µM in the data set with Pneumocystis carinii [2]. For the same compound, the “selectivity index for P. carinii (SIP.c)” value in the data set on Pneumocystis carinii [3] is on record as 596,500.

On to `N=C(N)c1ccc(NC(=O)CCCCCCC(=O)Nc2ccc(C(=N)N)cc2)cc1` [Compound 10], for which the “cytotoxicity” value in data set [1] is given as “very low cytoxicity”.

Regarding `N=C(N)c1ccc(NC(=O)CCCCC(=O)Nc2cccc(C(=N)N)c2)cc1` [Compound 8], in data set [1], the “cytotoxicity” value was “very low cytoxicity”.

With “N,N′-bis[4-(aminoiminomethyl)phenyl] pentanediamide, dihydrochloride salt [Compound 2]”, the “cytotoxicity” value in data set [1] was “very low cytoxicity”. Moreover, the IC50 with Pneumocystis carinii [2] is 0.003 µM. In data set [4], the “fold less active against the resistant strain” value is recorded as “about 11 fold”. The “selectivity index for P. carinii (SIP.c)” value in the data set with Pneumocystis carinii [3] is reported as 758,667. The “reductions in organism burden” value in the data set on Pneumocystis is recorded as > 1,000 fold.
